Values quoted from earlier work as cited in patent US20070119380A1, “Additive Composition for Feeding Aquaculture Animals and Feed Containing the Same” (priority 2003, published 2007).

Experiments:
[1] = in whitefish flesh/muscle, fresh/wet sample
mice = settings: interperitoneal and oral administration

Oc1ccc(Br)cc1Br [2,4-dibromophenol]
minimal amount (flavor threshold value) to produce a recognizable sensation [1]: 50 ng/g

Oc1ccccc1Br [2-bromophenol]
minimal amount (flavor threshold value) to produce a recognizable sensation [1]: 10 ng/g | sub-lethal toxic effects (mice): no sub-lethal toxic effects

Oc1c(Br)cc(Br)cc1Br [2,4,6-tribromophenol]
minimal amount (flavor threshold value) to produce a recognizable sensation [1]: 10 ng/g | sub-lethal toxic effects (mice): no sub-lethal toxic effects

Oc1c(Br)cccc1Br [2,6-dibromophenol]
minimal amount (flavor threshold value) to produce a recognizable sensation [1]: 0.1 ng/g

Oc1ccc(Br)cc1 [4-bromophenol]
minimal amount (flavor threshold value) to produce a recognizable sensation [1]: 20 ng/g
